The numbers were not newly measured in US20240009323A1, “METHODS OF TREATING COLON CANCER USING NANOPARTICLE MTOR INHIBITOR COMBINATION THERAPY” (Abraxis BioScience, LLC, priority 2017, published 2024), which cites them from elsewhere.

For data set [1] the following is noted: in vivo.

Each structure is given as a SMILES string.

Consider `COc1ccc(COc2cc3oc(=O)c4cc(C(C)O)ccc4c3cc2OC)cc1` (centres unmarked) [Palomid 529], for which the “affinity for ABCB1/ABCG2” value with ABCB1/ABCG2 is “lacks affinity”. The brain penetration result in data set [1] is recorded as “good brain penetration”.
